This experiment addresses Human Factor D (Homo sapiens (Human), UniProt P00746). Kind of experiment: Human Factor D Assay. The class given is biochemical. The note with it: Human Factor D 80 nM, substrate Z-L-Lys-SBzl, assay according to Example 3. In a few lines: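 Serum-purified factor D (80 nM final) preincubated with compound 5 min at room temperature in 50 mM Tris, 1M NaCl, pH 7.5. Z-L-Lys-SBzl substrate and DTNB added at 100 μM each; A405 read every 30 s for 30 min. IC50 from nonlinear regression of reaction rates versus compound concentration.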

Where only a bound is given, the exact number is not on record here.

The term IC50 denotes the concentration at which inhibition is half-maximal.

Sequence of Human Factor D (P00746 26-253): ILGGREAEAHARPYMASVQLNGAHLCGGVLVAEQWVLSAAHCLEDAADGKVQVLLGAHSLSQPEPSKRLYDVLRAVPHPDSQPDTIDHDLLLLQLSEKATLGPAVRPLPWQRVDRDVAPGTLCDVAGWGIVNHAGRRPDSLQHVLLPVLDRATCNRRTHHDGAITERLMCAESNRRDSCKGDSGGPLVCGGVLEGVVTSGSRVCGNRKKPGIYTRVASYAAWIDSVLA

For the compound `CC(=O)c1cn(CC(=O)N2[C@H](C(=O)Nc3nc(Br)ccc3C)C[C@@]3(C)C[C@@H]23)c2c(C)c(F)c(-c3cnc4cc(C)nn4c3)cc12` [Compound 50, (1R,3S,5R)-2-(2-(3-acetyl-6-fluoro-7-methyl-5-(2-methylpyrazolo[1,5-a]pyr-imidin-6-yl)-1H-indol-1-yl)acetyl)-N-(6-bromo-3-methylpyridin-2-yl)-5-methyl-2-zabicyclo[3.1.0] hexane-3-carboxamide], the IC50 is < 1000 nM.

On to `CC(=O)c1cn(CC(=O)N2[C@H](C(=O)Nc3nc(C(F)(F)F)ccc3Cl)C[C@@]3(C)C[C@@H]23)c2c(C)cc(-c3cnc4cc(C)nn4c3)cc12` [Compound 51, (1R,3S,5R)-2-(2-(3-acetyl-7-methyl-5-(2-methylpyr-azolo[1,5-a]pyrimidin-6-yl)-1H-indol-1-yl)acetyl)-N-(3-chloro-6-(trifluoro-methyl)pyridin-2-yl)-5-methyl-2-azabicyclo[3.1.0] hexane-3-carboxamide], for which the IC50 is < 1000 nM.

On to `COCc1ccc(C(F)(F)F)nc1NC(=O)[C@@H]1C[C@@]2(C)C[C@H]2N1C(=O)Cn1cc(C(C)=O)c2cc(-c3cnc(C)nc3)cc(C)c21` [Compound 52, (1R,3S,5R)-2-(2-(3-acetyl-7-methyl-5-(2-methylpyr-imidin-5-yl)-1H-indol-1-yl)acetyl)-N-(3-(methoxy-methyl)-6-(trifluorometh-yl)pyridin-2-yl)-5-methyl-2-azabicyclo[3.1.0]hexane-3-carboxamide], for which the IC50 is < 1000 nM.

Regarding `COCc1ccc(C(F)(F)F)nc1NC(=O)[C@@H]1C[C@@]2(C)C[C@H]2N1C(=O)Cn1cc(C(C)=O)c2cc(-c3cnc4cc(C)nn4c3)cc(C)c21` [Compound 53, (1R,3S,5R)-2-(2-(3-acetyl-7-methyl-5-(2-methylpyr-azolo[1,5-a]pyrimidin-6-yl)-1H-indol-1-yl)acetyl)-N-(3-(methoxymethyl)-6-(trifluoromethyl)pyridin-2-yl)-5-methyl-2-azabicyclo [3.1.0]hexane-3-carbox-amide], the IC50 is < 1000 nM.

For `CC(=O)c1cn(CC(=O)N2[C@H](C(=O)Nc3nc(C(F)(F)F)cc(F)c3C)C[C@@]3(C)C[C@@H]23)c2c(C)cc(-c3cnc(C)nc3)cc12` [Compound 54, (1R,3S,5R)-2-(2-(3-acetyl-7-methyl-5-(2-methylpyr-imidin-5-yl)-1H-indol-1-yl)acetyl)-N-(4-fluoro-3-methyl-6-(trifluorometh-yl)pyridin-2-yl)-5-methyl-2-azabicyclo[3.1.0]hexane-3-carboxamide], the 50% inhibitory concentration (IC50) is < 1000 nM.

Consider `CC(=O)c1cn(CC(=O)N2[C@H](C(=O)Nc3nc(C(F)(F)F)ccc3C)C[C@@]3(C)C[C@@H]23)c2c(C)nc(-c3cnc4cc(C)nn4c3)cc12` [Compound 55, (1R,3S,5R)-2-(2-(3-acetyl-7-methyl-5-(2-methylpyr-azolo[1,5-a]pyrimidin-6-yl)-1H-pyrrolo[2,3-c]pyr-idin-1-yl)acetyl)-5-methyl-N-(3-methyl-6-(trifluoro-methyl)pyridin-2-yl)-2-azabicyclo[3.1.0]hexane-3-carboxamide], for which the IC50 is < 1000 nM.

With `CC(=O)c1cn(CC(=O)N2[C@H](C(=O)Nc3nc(C(F)(F)F)ccc3C)C[C@@]3(C)C[C@@H]23)c2c(C)nc(-c3ccc4nc(C)nn4c3)cc12` [Compound 56, (1R,3S,5R)-2-(2-(3-acetyl-7-methyl-5-(2-methyl-[1,2,4]triazolo[1,5-a]pyr-idin-6-yl)-1H-pyrrolo[2,3-c]pyridin-1-yl)acetyl)-5-methyl-N-(3-methyl-6-(trifluoromethyl)pyridin-2-yl)-2-azabicyclo[3.1.0] hexane-3-carboxamide], the IC50 was < 1000 nM.

As for `CC(=O)c1cn(CC(=O)N2[C@H](C(=O)Nc3nc(C(F)(F)F)ncc3C)C[C@@]3(C)C[C@@H]23)c2c(C)cc(-c3cnc(C)nc3)cc12` [Compound 57, (1R,3S,5R)-2-(2-(3-acetyl-7-methyl-5-(2-methylpyr-imidin-5-yl)-1H-indol-1-yl)acetyl)-5-methyl-N-(5-methyl-2-(trifluorometh-yl)pyrimidin-4-yl)-2-aza-bicyclo[3.1.0]hexane-3-carboxamide], the IC50 is < 1000 nM.

Source of the values: patent US20250197403A1, “HETEROARYL COMPOUNDS FOR TREATMENT OF COMPLEMENT FACTOR D MEDIATED DISORDERS” (Achillion Pharmaceuticals, Inc., priority 2020, published 2025).
